Measurements: the NIST ThermoML archive (doi:10.1021/je030107c)

What was measured:
[1] = xn = mol fraction of the nth substance listed; conditions: 101.3 kPa, Liquid; for viscosity: Capillary tube (Ostwald / Ubbelohde) method; for speed of sound: Linear variable-path acoustic interferometer; for mass density: Pycnometric method
[2] = refractive index (Na D-line) (dimensionless); xn = mol fraction of the nth substance listed; conditions: 101.3 kPa, Liquid, Standard Abbe refractometry

C1COCCO1 [1,4-dioxane] + CCCCCC
Conditions | mass density, 298.15 K [kg/m3] | mass density, 303.15 K [kg/m3] | mass density, 308.15 K [kg/m3] | refractive index, 298.15 K | refractive index, 303.15 K | refractive index, 308.15 K | speed of sound, 298.15 K [m/s] | viscosity, 298.15 K [mPa·s] | viscosity, 303.15 K [mPa·s] | viscosity, 308.15 K [mPa·s]
[1], x1 = 0.1135 | 682 | 677.3 | 672.5 | – | – | – | 1087 | 0.333 | 0.319 | 0.304
[1], x1 = 0.2057 | 706.4 | 701.4 | 696.5 | – | – | – | 1099 | 0.357 | 0.34 | 0.323
[1], x1 = 0.3099 | 736.2 | 731.2 | 726.1 | – | – | – | 1116 | 0.391 | 0.372 | 0.353
[1], x1 = 0.4032 | 765.7 | 760.5 | 755.3 | – | – | – | 1132 | 0.429 | 0.408 | 0.386
[1], x1 = 0.501 | 799.6 | 794.3 | 788.9 | – | – | – | 1154 | 0.482 | 0.455 | 0.429
[1], x1 = 0.6028 | 838.1 | 832.7 | 827.2 | – | – | – | 1185 | 0.549 | 0.517 | 0.485
[1], x1 = 0.7006 | 878.7 | 873.3 | 868 | – | – | – | 1220 | 0.634 | 0.596 | 0.557
[1], x1 = 0.7991 | 924 | 918.3 | 912.4 | – | – | – | 1257 | 0.753 | 0.705 | 0.656
[1], x1 = 0.8962 | 972.1 | 966.4 | 960.8 | – | – | – | 1303 | 0.912 | 0.849 | 0.787
[1], x1 = 1 | 1027.6 | 1021.9 | 1016.2 | – | – | – | 1347 | 1.166 | 1.069 | 0.984
[2], x1 = 0.1135 | – | – | – | 1.3758 | 1.3728 | 1.37 | – | – | – | –
[2], x1 = 0.2057 | – | – | – | 1.3787 | 1.3756 | 1.3726 | – | – | – | –
[2], x1 = 0.3099 | – | – | – | 1.3824 | 1.3795 | 1.3767 | – | – | – | –
[2], x1 = 0.4032 | – | – | – | 1.3864 | 1.3838 | 1.3814 | – | – | – | –
[2], x1 = 0.501 | – | – | – | 1.3906 | 1.3878 | 1.385 | – | – | – | –
[2], x1 = 0.6028 | – | – | – | 1.3954 | 1.3928 | 1.3903 | – | – | – | –
[2], x1 = 0.7006 | – | – | – | 1.4014 | 1.3986 | 1.3959 | – | – | – | –
[2], x1 = 0.7991 | – | – | – | 1.4078 | 1.4048 | 1.4017 | – | – | – | –
[2], x1 = 0.8962 | – | – | – | 1.414 | 1.4119 | 1.4098 | – | – | – | –
[2], x1 = 1 | – | – | – | 1.4201 | 1.417 | 1.4143 | – | – | – | –

C1COCCO1 [1,4-dioxane] + OCCO
Conditions | mass density, 298.15 K [kg/m3] | mass density, 303.15 K [kg/m3] | mass density, 308.15 K [kg/m3] | refractive index, 298.15 K | refractive index, 303.15 K | refractive index, 308.15 K | speed of sound, 298.15 K [m/s] | viscosity, 298.15 K [mPa·s] | viscosity, 303.15 K [mPa·s] | viscosity, 308.15 K [mPa·s]
[1], x1 = 0.1031 | 1100.6 | 1096.6 | 1092.8 | – | – | – | 1620 | 9.007 | 7.262 | 5.518
[1], x1 = 0.2072 | 1090.6 | 1086.4 | 1082.4 | – | – | – | 1577 | 6.285 | 5.149 | 4.013
[1], x1 = 0.3021 | 1082 | 1077.6 | 1073.1 | – | – | – | 1537 | 4.654 | 3.849 | 3.044
[1], x1 = 0.4246 | 1071.1 | 1066.5 | 1061.7 | – | – | – | 1485 | 3.177 | 2.68 | 2.181
[1], x1 = 0.5042 | 1064.5 | 1059.7 | 1054.7 | – | – | – | 1456 | 2.566 | 2.184 | 1.802
[1], x1 = 0.5986 | 1056.8 | 1051.7 | 1046.8 | – | – | – | 1426 | 2.012 | 1.728 | 1.444
[1], x1 = 0.6914 | 1049.6 | 1044.5 | 1039.5 | – | – | – | 1400 | 1.663 | 1.447 | 1.229
[1], x1 = 0.7906 | 1042.4 | 1037.1 | 1031.8 | – | – | – | 1381 | 1.388 | 1.226 | 1.063
[1], x1 = 0.8909 | 1035.2 | 1029.9 | 1024.5 | – | – | – | 1369 | 1.212 | 1.081 | 0.949
[1], x1 = 1 | 1027.6 | 1021.9 | 1016.2 | – | – | – | 1347 | 1.166 | 1.069 | 0.984
[2], x1 = 0.1031 | – | – | – | 1.4294 | 1.4279 | 1.4262 | – | – | – | –
[2], x1 = 0.2072 | – | – | – | 1.4284 | 1.4268 | 1.425 | – | – | – | –
[2], x1 = 0.3021 | – | – | – | 1.4275 | 1.4256 | 1.4236 | – | – | – | –
[2], x1 = 0.4246 | – | – | – | 1.426 | 1.424 | 1.4219 | – | – | – | –
[2], x1 = 0.5042 | – | – | – | 1.4248 | 1.4226 | 1.4204 | – | – | – | –
[2], x1 = 0.5986 | – | – | – | 1.4238 | 1.4216 | 1.4193 | – | – | – | –
[2], x1 = 0.6914 | – | – | – | 1.423 | 1.4207 | 1.4186 | – | – | – | –
[2], x1 = 0.7906 | – | – | – | 1.422 | 1.4196 | 1.4172 | – | – | – | –
[2], x1 = 0.8909 | – | – | – | 1.421 | 1.4187 | 1.4163 | – | – | – | –
[2], x1 = 1 | – | – | – | 1.4201 | 1.417 | 1.4143 | – | – | – | –

CCCCN(CCCC)CCCC [tributylamine] + C1COCCO1
Conditions | mass density, 298.15 K [kg/m3] | mass density, 303.15 K [kg/m3] | mass density, 308.15 K [kg/m3] | refractive index, 298.15 K | refractive index, 303.15 K | refractive index, 308.15 K | speed of sound, 298.15 K [m/s] | viscosity, 298.15 K [mPa·s] | viscosity, 303.15 K [mPa·s] | viscosity, 308.15 K [mPa·s]
[1], x2 = 0 | 774.4 | 770.1 | 766.2 | – | – | – | 1261 | 1.36 | 1.221 | 1.125
[1], x2 = 0.1201 | 785.1 | 780.9 | 776.8 | – | – | – | 1253 | 1.245 | 1.142 | 1.039
[1], x2 = 0.2122 | 794.7 | 790.2 | 785.9 | – | – | – | 1254 | 1.19 | 1.089 | 0.989
[1], x2 = 0.3072 | 806 | 801.6 | 797.1 | – | – | – | 1257 | 1.156 | 1.059 | 0.963
[1], x2 = 0.4085 | 820.5 | 815.9 | 811.4 | – | – | – | 1264 | 1.137 | 1.044 | 0.95
[1], x2 = 0.5014 | 836.6 | 832.1 | 827.5 | – | – | – | 1272 | 1.123 | 1.032 | 0.94
[1], x2 = 0.5972 | 856.9 | 852.1 | 847.4 | – | – | – | 1281 | 1.118 | 1.026 | 0.934
[1], x2 = 0.6998 | 884 | 879.2 | 874.1 | – | – | – | 1292 | 1.112 | 1.022 | 0.933
[1], x2 = 0.7999 | 917.9 | 912.6 | 907.4 | – | – | – | 1305 | 1.114 | 1.025 | 0.936
[1], x2 = 0.8947 | 960.6 | 955.2 | 949.9 | – | – | – | 1320 | 1.133 | 1.042 | 0.952
[2], x2 = 0 | – | – | – | 1.4274 | 1.4251 | 1.4226 | – | – | – | –
[2], x2 = 0.1201 | – | – | – | 1.4266 | 1.424 | 1.4215 | – | – | – | –
[2], x2 = 0.2122 | – | – | – | 1.4259 | 1.4236 | 1.421 | – | – | – | –
[2], x2 = 0.3072 | – | – | – | 1.425 | 1.4226 | 1.4201 | – | – | – | –
[2], x2 = 0.4085 | – | – | – | 1.4244 | 1.4218 | 1.4196 | – | – | – | –
[2], x2 = 0.5014 | – | – | – | 1.4234 | 1.4209 | 1.4184 | – | – | – | –
[2], x2 = 0.5972 | – | – | – | 1.4226 | 1.4201 | 1.4174 | – | – | – | –
[2], x2 = 0.6998 | – | – | – | 1.4217 | 1.4192 | 1.4168 | – | – | – | –
[2], x2 = 0.7999 | – | – | – | 1.421 | 1.4185 | 1.416 | – | – | – | –
[2], x2 = 0.8947 | – | – | – | 1.4205 | 1.418 | 1.4154 | – | – | – | –
